Read-outs that look alike come from different tables or passages of the source.
Legend:
[1] = system: carbapenem-resistant Acinetobacter baumannii; assay: Chessboard microbroth dilution MIC/FIC, compound 2 in combination with polymyxin; type: cell-based; conditions: for MIC: Acinetobacter baumannii, read-out: Compound 2 MIC alone; for Compound 2 MIC in combination: with polymyxin; for Polymyxin MIC in combination: with compound 2
Excerpt: This experiment is designed to determine the minimum inhibitory concentration (MIC) of compound 2 in combination with polymyxin against carbapenem-resistant Acinetobacter baumannii and to calculate the fractional inhibitory concentration (FIC) index.
(§1) Test bacteria: 10 strains of carbapenem-resistant Acinetobacter baumannii are clinically isolated strains, and are provided by Shanghai Junji Medical Laboratory Co., Ltd.
(§2) According to the recommendation of the Clinical and Laboratory Standards Institute (CLSI), the microbroth dilution method designed by the chessboard method was used to determine the minimum inhibitory concentration (MIC) of compound 2 in combination with polymyxin against the above strains, and the fractional inhibitory concentration (FIC) index was calculated.
(§3) Compound 2 was dissolved in dimethyl sulfoxide to obtain a stock solution I with a concentration of 51200 mg/L. The stock solution I was subjected to 1:1 gradient dilution with dimethyl sulfoxide to obtain a dilution solution with a concentration range of 51200 to 25 mg/L. The corresponding concentrations were added to sterile water for 100-fold dilution to obtain working solution I with a concentration range of 512 to 0.25 mg/L.
Polymyxin was dissolved in sterile water to obtain a stock solution with a concentration of 5120 mg/L. The […] stock solution was subjected to 1:1 gradient dilution with sterile water to obtain a working solution II with a concentration range of 512 to 0.25 mg/L.
(§4) According to the method in Example 1, a drug sensitive plate was prepared with working solution I and working solution II, and the specific process will not be repeated here.
(§5) (2) The culture medium of the bacterial solution: Cation-Adjusted Mueller-Hinton Broth (CAMHB), a product of BBL, USA, batch number 9015952.
(§6) (3) Formulation method of bacterial solution: According to the direct colony suspension method, the test bacteria cultured overnight were prepared into a 0.5 McFarland turbidity tube using physiological saline. Then, the resulting solution was dilute 100 times with the above culture medium. 100 μL of the resulting bacterial solution was mixed well with the solution (100 μL) in each well of the drug sensitivity plate, and the final inoculation amount was 10^5 CFU/mL.
(§7) (4) Culture conditions: Culturing at 35±2° C. for 20 hours in air.
(§8) (1) The experimental results were determined according to the standard of CLSI 2020 M100 30th edition.
(§9) wherein: FIC≤0.5 indicates synergistic effect; 0.5<FIC≤1.0 indicates additive effect; 1<FIC≤2.0 indicates irrelevant effect; and FIC>2 indicates antagonistic effect.

[2] = system: carbapenem-resistant Acinetobacter baumannii; assay: Chessboard microbroth dilution MIC/FIC, compound 1 in combination with polymyxin; type: cell-based; conditions: for Polymyxin MIC in combination: with compound 1
Excerpt: This experiment is designed to determine the minimum inhibitory concentration (MIC) of compound 1 in combination with polymyxin against carbapenem-resistant Acinetobacter baumannii and to calculate the fractional inhibitory concentration (FIC) index.
as §1
as §2, with “1” for “2”
as §3, with “Compound 1” for “Compound 2”
Polymyxin was dissolved in sterile water to obtain a stock solution with a concentration of 5120 mg/L. The polymyxin stock solution was subjected to 1:1 gradient dilution with sterile water to obtain a working solution II with a concentration range of 512 to 0.25 mg/L.
as §4, §5, §6, §7, §8, §9

[3] = strain 18-J11-001, compound 2 + polymyxin
[4] = strain 18-J11-002, compound 2 + polymyxin
[5] = strain 18-J11-034, compound 2 + polymyxin
[6] = strain 18-J11-097, compound 2 + polymyxin
[7] = strain 18-J15-030, compound 2 + polymyxin
[8] = strain 18-J21-095, compound 2 + polymyxin
[9] = strain 18-J24-015, compound 2 + polymyxin
[10] = strain 18-J24-033, compound 2 + polymyxin
[11] = strain 18-J40-021, compound 2 + polymyxin
[12] = strain 18-J51-052, compound 2 + polymyxin

Compound: O=[N+]([O-])c1c(Cl)c(F)c2cccnc2c1O [Compound 2, 5-fluoro-6-chloro-7-nitroquinolin-8-ol]
- MIC ([1]; strain 18-J11-001): 8 µg/mL
- MIC ([1]; strain 18-J11-002): 4 µg/mL
- MIC ([1]; strain 18-J11-034): 4 µg/mL
- MIC ([1]; strain 18-J11-097): 4 µg/mL
- MIC ([1]; strain 18-J15-030): 4 µg/mL
- MIC ([1]; strain 18-J21-095): 4 µg/mL
- MIC ([1]; strain 18-J24-015): 4 µg/mL
- MIC ([1]; strain 18-J24-033): 4 µg/mL
- MIC ([1]; strain 18-J40-021): 4 µg/mL
- MIC ([1]; strain 18-J51-052): 4 µg/mL
- change of the MIC of polymyxin by the combination ([1]; compound 2 + polymyxin): significantly reduce
- effect of the combination (summary of Table 3) ([1]; compound 2 + polymyxin): synergistic effect or additive effect
- FIC index [1, 3]: 0.375
- Results [1, 3]: Synergistic
- Compound 2 MIC in combination ([1]; strain 18-J11-001): 1 µg/mL
- FIC index [1, 4]: 0.500
- Results [1, 4]: Synergistic
- Compound 2 MIC in combination ([1]; strain 18-J11-002): 1 µg/mL
- FIC index [1, 5]: 0.750
- Results [1, 5]: Additive
- Compound 2 MIC in combination ([1]; strain 18-J11-034): 1 µg/mL
- FIC index [1, 6]: 0.375
- Results [1, 6]: Synergistic
- Compound 2 MIC in combination ([1]; strain 18-J11-097): 0.5 µg/mL
- FIC index [1, 7]: 0.750
- Results [1, 7]: Additive
- Compound 2 MIC in combination ([1]; strain 18-J15-030): 1 µg/mL
- FIC index [1, 8]: 1.000
- Results [1, 8]: Additive
- Compound 2 MIC in combination ([1]; strain 18-J21-095): 2 µg/mL
- FIC index [1, 9]: 0.500
- Results [1, 9]: Synergistic
- Compound 2 MIC in combination ([1]; strain 18-J24-015): 1 µg/mL
- FIC index [1, 10]: 0.625
- Results [1, 10]: Additive
- Compound 2 MIC in combination ([1]; strain 18-J24-033): 2 µg/mL
- FIC index [1, 11]: 0.500
- Results [1, 11]: Synergistic
- Compound 2 MIC in combination ([1]; strain 18-J40-021): 1 µg/mL
- FIC index [1, 12]: 0.500
- Results [1, 12]: Synergistic
- Compound 2 MIC in combination ([1]; strain 18-J51-052): 1 µg/mL

Compound: polymyxin E [reference compound]
- Polymyxin MIC alone ([2]; strain 18-J11-001): 0.25 µg/mL
- Polymyxin MIC in combination ([2]; strain 18-J11-001): 0.06 µg/mL
- Polymyxin MIC alone ([2]; strain 18-J11-002): 0.25 µg/mL
- Polymyxin MIC in combination ([2]; strain 18-J11-002): 0.06 µg/mL
- Polymyxin MIC alone ([2]; strain 18-J11-034): 0.5 µg/mL
- Polymyxin MIC in combination ([2]; strain 18-J11-034): 0.125 µg/mL
- Polymyxin MIC alone ([2]; strain 18-J11-097): 0.25 µg/mL
- Polymyxin MIC in combination ([2]; strain 18-J11-097): 0.06 µg/mL
- Polymyxin MIC alone ([2]; strain 18-J15-030): 0.5 µg/mL
- Polymyxin MIC in combination ([2]; strain 18-J15-030): 0.125 µg/mL
- Polymyxin MIC alone ([2]; strain 18-J21-095): 0.25 µg/mL
- Polymyxin MIC in combination ([2]; strain 18-J21-095): 0.06 µg/mL
- Polymyxin MIC alone ([2]; strain 18-J24-015): 0.5 µg/mL
- Polymyxin MIC in combination ([2]; strain 18-J24-015): 0.125 µg/mL
- Polymyxin MIC alone ([2]; strain 18-J24-033): 0.5 µg/mL
- Polymyxin MIC in combination ([2]; strain 18-J24-033): 0.125 µg/mL
- Polymyxin MIC alone ([2]; strain 18-J40-021): 1 µg/mL
- Polymyxin MIC in combination ([2]; strain 18-J40-021): 0.125 µg/mL
- Polymyxin MIC alone ([2]; strain 18-J51-052): 0.5 µg/mL
- Polymyxin MIC in combination ([2]; strain 18-J51-052): 0.125 µg/mL
- Polymyxin MIC alone ([1]; strain 18-J11-001): 0.5 µg/mL
- Polymyxin MIC in combination ([1]; strain 18-J11-001): 0.125 µg/mL
- Polymyxin MIC alone ([1]; strain 18-J11-002): 1 µg/mL
- Polymyxin MIC in combination ([1]; strain 18-J11-002): 0.25 µg/mL
- Polymyxin MIC alone ([1]; strain 18-J11-034): 0.5 µg/mL
- Polymyxin MIC in combination ([1]; strain 18-J11-034): 0.25 µg/mL
- Polymyxin MIC alone ([1]; strain 18-J11-097): 0.5 µg/mL
- Polymyxin MIC in combination ([1]; strain 18-J11-097): 0.125 µg/mL
- Polymyxin MIC alone ([1]; strain 18-J15-030): 0.5 µg/mL
- Polymyxin MIC in combination ([1]; strain 18-J15-030): 0.25 µg/mL
- Polymyxin MIC alone ([1]; strain 18-J21-095): 0.5 µg/mL
- Polymyxin MIC in combination ([1]; strain 18-J21-095): 0.25 µg/mL
- Polymyxin MIC alone ([1]; strain 18-J24-015): 1 µg/mL
- Polymyxin MIC in combination ([1]; strain 18-J24-015): 0.25 µg/mL
- Polymyxin MIC alone ([1]; strain 18-J24-033): 1 µg/mL
- Polymyxin MIC in combination ([1]; strain 18-J24-033): 0.125 µg/mL
- Polymyxin MIC alone ([1]; strain 18-J40-021): 1 µg/mL
- Polymyxin MIC in combination ([1]; strain 18-J40-021): 0.25 µg/mL
- Polymyxin MIC alone ([1]; strain 18-J51-052): 1 µg/mL
- Polymyxin MIC in combination ([1]; strain 18-J51-052): 0.25 µg/mL

Reference: US20260240832A1, “USE OF NITROXOLINE COMPOUND IN ENHANCING EFFECT OF ANTIBACTERIAL AGENT” (Jiangsu Yahong Meditech Co., Ltd., priority 2022, published 2026)
